Where a name gives a salt, the structure may show the parent alone.
Key:
h5HT2C = h5HT2C (Homo sapiens (Human), UniProt P28335); test: h5HT2C binding
h5HT2B = h5HT2B (Homo sapiens (Human), UniProt P41595); test: h5HT2B binding
rat 5-HT7 receptor = rat 5-HT7 receptor (Rattus norvegicus (Rat), UniProt P32305); test: r5-HT7 binding assay, competitive radioligand binding with [3H]5-CT
Summary of the method: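 Competition against [3H]5-CT on rat 5-HT7 HEK-293 membranes; Ki from radioactivity. Functional: 10 min compound, 100 nM 5-CT for 20 min, cAMP immunoassay after lysis.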

h5HT2A = h5HT2A (Homo sapiens (Human), UniProt P28223); test: h5HT2A binding
human SERT = human SERT (Homo sapiens (Human), UniProt P31645); test: human SERT binding assay with [3H]-citalopram on HEK-293 membranes; conditions: read-out: hSERT binding Ki
r5-HT7 receptor = r5-HT7 receptor (Rattus norvegicus (Rat), UniProt P32305); test: HitHunter cAMP assay, antagonist testing against 100 nM 5-CT; type: cell-based; conditions: antagonist testing, 100 nM 5-CT challenge, HEK-293 r5-HT7; read-out: R5HT7 cAMP pKb (converted)
Protocol: Receptor binding was performed using membrane fractions prepared from the HEK-293 cell line recombinantly expressing rat 5-HT7 receptors (NCBI accession NM_022938). Compound affinity for the rat 5-HT7 receptor subtype was evaluated by competitive radioligand binding assays using 5-carboxamido[^3H]tryptamine ([^3H]5-CT) (Amersham Biosciences, cat. 90000403) detection. HitHunter™ cAMP assays are in-vitro based competitive immunoassays. The assay was performed on the HEK-293 cell line stably transfected with r5-HT7 receptor. Cells were pre-incubated with test compounds for 10 minutes. For antagonist testing, the cells were then challenged with 100 nM 5-CT for 20 minutes. Cells were then lysed and cAMP measured according to manufacturers protocol (Amersham, cat. NET791250UC) or [^3H]mesulergine (Amersham, cat. TRK1041). The assay was performed on membranes prepared from HEK-293 cells stably transfected with h5-HT6. Following centrifugation, membranes were resuspended and incubated for 60 min at room temperature with 1.7 nM [^3H]LSD in the presence of increasing concentration of test compounds. Nonspecific binding was defined in the presence of 10 μM clozapine (Tocris, cat. TRK1068). Homogenized HEK-293 membranes expressing the human SERT were incubated in 50 mM Tris-HCl (pH 7.5), 120 mM NaCl, 5 mM KCl with [^3H]-citalopram (3 nM) with or without test compounds. Nonspecific binding was determined in the presence of 10 μM fluoxetine. Radioactivity readouts and Ki values were performed as previously described for r5-HT7. […] Compounds were assayed in their free form or as salts, as indicated in the Examples section above.

[1] = rat 5-HT7 receptor, HEK-293 membranes

h5HT2B, sequence (P41595 whole entry): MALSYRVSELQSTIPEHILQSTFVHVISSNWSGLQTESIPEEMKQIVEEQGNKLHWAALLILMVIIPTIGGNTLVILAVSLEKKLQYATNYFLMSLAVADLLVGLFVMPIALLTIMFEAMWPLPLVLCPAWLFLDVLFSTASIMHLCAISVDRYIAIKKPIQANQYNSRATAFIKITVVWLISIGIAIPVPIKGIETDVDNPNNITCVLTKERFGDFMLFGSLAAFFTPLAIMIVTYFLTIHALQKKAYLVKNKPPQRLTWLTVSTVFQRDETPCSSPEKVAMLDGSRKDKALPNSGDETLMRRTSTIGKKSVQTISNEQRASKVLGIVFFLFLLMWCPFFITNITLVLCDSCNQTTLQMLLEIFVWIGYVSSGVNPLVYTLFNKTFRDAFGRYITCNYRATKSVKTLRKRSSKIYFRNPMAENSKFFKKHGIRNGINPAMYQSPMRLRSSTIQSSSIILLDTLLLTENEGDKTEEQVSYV
human SERT, sequence (P31645 whole entry): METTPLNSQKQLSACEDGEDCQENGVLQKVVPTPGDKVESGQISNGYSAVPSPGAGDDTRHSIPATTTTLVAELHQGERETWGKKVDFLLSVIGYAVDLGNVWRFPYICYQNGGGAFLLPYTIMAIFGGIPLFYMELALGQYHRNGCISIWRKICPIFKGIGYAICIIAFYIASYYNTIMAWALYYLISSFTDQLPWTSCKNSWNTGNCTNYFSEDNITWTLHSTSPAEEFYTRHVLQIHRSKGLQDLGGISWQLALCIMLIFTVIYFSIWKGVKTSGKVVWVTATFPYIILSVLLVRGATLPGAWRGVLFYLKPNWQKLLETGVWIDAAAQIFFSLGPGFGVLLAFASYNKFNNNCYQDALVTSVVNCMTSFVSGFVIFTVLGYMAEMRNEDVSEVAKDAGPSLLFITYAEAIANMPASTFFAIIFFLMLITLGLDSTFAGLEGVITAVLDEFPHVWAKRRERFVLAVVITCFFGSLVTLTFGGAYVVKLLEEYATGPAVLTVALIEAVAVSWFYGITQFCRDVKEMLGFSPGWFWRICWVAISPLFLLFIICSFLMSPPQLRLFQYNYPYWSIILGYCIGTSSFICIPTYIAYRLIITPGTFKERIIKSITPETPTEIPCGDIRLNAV
h5HT2C, sequence (P28335 33-458): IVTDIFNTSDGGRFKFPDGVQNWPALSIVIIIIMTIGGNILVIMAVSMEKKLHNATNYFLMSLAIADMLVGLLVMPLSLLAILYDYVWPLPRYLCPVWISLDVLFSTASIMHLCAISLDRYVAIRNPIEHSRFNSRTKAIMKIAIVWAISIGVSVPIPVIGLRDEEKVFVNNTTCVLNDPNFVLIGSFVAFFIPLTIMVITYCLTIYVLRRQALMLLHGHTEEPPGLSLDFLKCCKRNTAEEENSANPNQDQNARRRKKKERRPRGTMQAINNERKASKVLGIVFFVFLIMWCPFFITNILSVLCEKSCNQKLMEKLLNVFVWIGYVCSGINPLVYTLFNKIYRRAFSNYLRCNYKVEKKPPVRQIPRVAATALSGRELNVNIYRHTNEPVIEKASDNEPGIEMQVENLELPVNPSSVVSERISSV
h5HT2A, sequence (P28223 whole entry): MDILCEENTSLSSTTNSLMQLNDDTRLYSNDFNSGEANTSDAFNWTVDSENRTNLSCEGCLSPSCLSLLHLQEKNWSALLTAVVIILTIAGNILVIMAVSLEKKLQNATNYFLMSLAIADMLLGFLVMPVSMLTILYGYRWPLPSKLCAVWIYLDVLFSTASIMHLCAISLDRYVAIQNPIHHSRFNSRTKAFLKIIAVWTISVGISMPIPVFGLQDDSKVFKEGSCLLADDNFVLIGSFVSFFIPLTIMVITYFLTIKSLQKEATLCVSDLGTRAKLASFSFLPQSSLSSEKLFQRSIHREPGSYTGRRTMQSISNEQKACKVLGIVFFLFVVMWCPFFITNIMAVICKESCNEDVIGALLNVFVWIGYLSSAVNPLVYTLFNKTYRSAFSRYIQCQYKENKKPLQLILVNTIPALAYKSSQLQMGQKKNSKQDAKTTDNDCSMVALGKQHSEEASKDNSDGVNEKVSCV
rat 5-HT7 receptor, sequence (P32305 1-435): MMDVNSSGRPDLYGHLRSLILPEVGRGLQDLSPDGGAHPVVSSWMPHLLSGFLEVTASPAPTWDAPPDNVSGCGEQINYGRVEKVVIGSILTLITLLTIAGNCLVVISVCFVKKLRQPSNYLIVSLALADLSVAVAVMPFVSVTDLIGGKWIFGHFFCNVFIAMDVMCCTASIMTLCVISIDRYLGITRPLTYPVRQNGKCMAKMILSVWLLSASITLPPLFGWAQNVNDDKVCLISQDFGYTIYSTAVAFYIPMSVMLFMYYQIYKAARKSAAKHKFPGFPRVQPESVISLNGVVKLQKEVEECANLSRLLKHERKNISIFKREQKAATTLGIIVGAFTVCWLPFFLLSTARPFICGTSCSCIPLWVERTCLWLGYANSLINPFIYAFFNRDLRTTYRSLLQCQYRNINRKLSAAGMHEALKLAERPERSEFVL
r5-HT7 receptor, sequence (P32305 1-435): as above

Ki (h5HT2C) [nM] | Ki (h5HT2B) [nM] | Ki (h5HT2A) [nM] | Compound | Ki (rat 5-HT7 receptor; [1]) [nM] | Ki (human SERT) [nM] | Kb (r5-HT7 receptor) [nM] | Ki (rat 5-HT7 receptor; rat 5-HT7, HEK-293 membranes) [nM]
69 | 250 | 32 | Clc1cccc(COc2cc(Cl)ccc2O[C@H]2CCNC2)c1 [Example 94, (S)-3-[4-Chloro-2-(3-chloro-benzyloxy)-phenoxy]-pyrrolidine] | > 2500 |  |  | 
 |  |  | Clc1ccc(COc2ccc(Cl)cc2OC2CNC2)cc1 [Example 36, 3-[5-Chloro-2-(4-chloro-benzyloxy)-phenoxy]-azetidine trifluoroacetate] | 15 | 36 | 794 | 
 |  |  | Clc1cccc(Oc2ccc(Br)cc2OC2CNC2)c1 [Example 252, 3-[5-Bromo-2-(3-chloro-phenoxy)-phenoxy]-azetidine] |  | 60 | 63.1 | 7
 |  |  | Clc1ccc(Oc2ccc3ccccc3c2)c(OC2CNC2)c1 [Example 260, 3-[5-Chloro-2-(naphthalen-2-yloxy)-phenoxy]-azetidine] |  | 2 | 1000 | 16
120 | 50 | 5 | CN1CC[C@@H](Oc2ccc(Cl)cc2OCc2ccccc2)C1 [Example 91, (R)-3-(2-Benzyloxy-4-chloro-phenoxy)-1-methyl-pyrrolidine] | 500 |  |  | 
51 | 13 | 3 | CN1CC[C@@H](Oc2ccc(Cl)cc2OCc2cccc(Cl)c2)C1 [Example 93, (R)-3-[4-Chloro-2-(3-chloro-benzyloxy)-phenoxy]-1-methyl-pyrrolidine] | 140 |  |  | 
 |  |  | ON=C(COc1ccc(Cl)cc1OC1CNC1)c1ccccc1 [Example 181, 2-[2-(Azetidin-3-yloxy)-4-chloro-phenoxy]-1-phenyl-ethanone oxime] | 19 | 967 | 20 | 
 |  |  | CN1CC(Oc2cc(F)ccc2OCc2cccc(Cl)c2)C1 [Example 203, 3-[2-(3-Chloro-benzyloxy)-5-fluoro-phenoxy]-1-methyl-azetidine] | 24 | 271 | 20 | 
 |  |  | Clc1ccc(OC2Cc3ccccc3C2)c(OC2CNC2)c1 [Example 173, 3-[5-Chloro-2-(indan-2-yloxy)-phenoxy]-azetidine] | 7 | 56 | 7.94 | 
 |  |  | Clc1ccc(OC2CCCc3ccccc32)c(OC2CNC2)c1 (stereo not shown) [Example 161, 3-[5-Chloro-2-(1,2,3,4-tetrahydro-naphthalen-1-yloxy)-phenoxy]-azetidine] | 28 | 60 | 15.8 | 
 |  |  | COc1cccc(COc2ccc(Cl)cc2OC2CNC2)c1 [Example 33, 3-[5-Chloro-2-(3-methoxy-benzyloxy)-phenoxy]-azetidine] | 7 | 8 | 15.8 | 
 |  |  | Brc1ccc(OC2Cc3ccccc3C2)c(OC2CNC2)c1 [Example 174, 3-[5-Bromo-2-(indan-2-yloxy)-phenoxy]-azetidine] | 6 | 42 | 6.31 | 
 |  |  | FC(F)(F)c1cccc(COc2ccc(Cl)cc2OC2CNC2)c1 [Example 39, 3-[5-Chloro-2-(3-trifluoromethyl-benzyloxy)-phenoxy]-azetidine] | 7 | 4 | 3.16 | 
110 | 28 | 14 | Clc1cccc(COc2cc(Cl)ccc2O[C@@H]2CCNC2)c1 [Example 92, (R)-3-[4-Chloro-2-(3-chloro-benzyloxy)-phenoxy]-pyrrolidine] | 260 |  |  | 
 |  |  | Clc1cccc(COc2ccc(Br)cc2OC2CN(C3CCC3)C2)c1 [Example 3, 3-[5-Bromo-2-(3-chloro-benzyloxy)-phenoxy]-1-cyclobutyl-azetidine] | 18 | 381 | 2.51 | 
 |  |  | CC(C)N1CC(Oc2cc(Br)ccc2OCc2cccc(Cl)c2)C1 [Example 5, 3-[5-Bromo-2-(3-chloro-benzyloxy)-phenoxy]-1-isopropyl-azetidine] | 8 | 194 | 5.01 | 
 |  |  | O=C(c1ccc2ccccc2c1)c1ccc(Br)cc1OC1CNC1 [Example 287, [2-(Azetidin-3-yloxy)-4-bromo-phenyl]-naphthalen-2-yl-methanone] |  | 14 | 63.1 | 15

Ki (h5HT2C) [nM] | Ki (h5HT2B) [nM] | Ki (h5HT2A) [nM] | Compound | Ki (rat 5-HT7 receptor; [1]) [nM] | Ki (human SERT) [nM] | Kb (r5-HT7 receptor) [nM] | Ki (rat 5-HT7 receptor; rat 5-HT7, HEK-293 membranes) [nM]
 |  |  | FC(F)(F)c1cc(COc2ccc(Cl)cc2OC2CNC2)ccc1Cl [Example 49, 3-[5-Chloro-2-(4-chloro-3-trifluoromethyl-benzyloxy)-phenoxy]-azetidine] | 13 | 40 | 25.1 | 
 |  |  | COc1ccc(COc2ccc(Br)cc2OC2CNC2)cc1Cl [Example 13, 3-[5-Bromo-2-(3-chloro-4-methoxy-benzyloxy)-phenoxy]-azetidine] | 4 | 6 | 3.98 | 
 |  |  | Clc1ccc(COc2ccc(Br)cc2OC2CNC2)cc1 [Example 14, 3-[5-Bromo-2-(4-chloro-benzyloxy)-phenoxy]-azetidine trifluoroacetate] | 12 | 52 | 158 | 
 |  |  | FC(F)(F)c1cccc(COc2ccc(Br)cc2OC2CNC2)c1 [Example 8, 3-[5-Bromo-2-(3-trifluoromethyl-benzyloxy)-phenoxy]-azetidine] | 6 | 4 | 7.94 | 
 |  |  | CC(Oc1ccc(Cl)cc1OC1CNC1)c1cccc(Cl)c1 (racemic) [Example 114, (±)-3-[5-Chloro-2-[1-(3-chloro-phenyl)-ethoxly]-phenoxy]-azetidine] | 14 | 75 | 31.6 | 
 |  |  | Clc1ccc(OCc2ccc(Cl)c(Cl)c2)c(OC2CNC2)c1 [Example 50, 3-[5-Chloro-2-(3,4-dichloro-benzyloxy)-phenoxy]-azetidine] | 10 | 5 | 31.6 | 
 |  |  | Clc1ccc(OCc2ccccc2)c(OC2CNC2)c1 [Example 40, 3-(2-Benzyloxy-5-chloro-phenoxy)-azetidine] | 9 | 43 | 39.8 | 
 |  |  | FC(F)(F)c1ccc(COc2ccc(Cl)cc2OC2CCNCC2)o1 [Example 63, 4-[5-Chloro-2-(5-trifluoromethyl-furan-2-ylmethoxy)-phenoxy]-piperidine hydrochloride] | 7 | 48 | 25.1 | 
 |  |  | Fc1ccc2c(c1)CCC2Oc1ccc(Br)cc1OC1CNC1 (racemic) [Example 154, (±)-3-[5-Bromo-2-(5-fluoro-indan-1-yloxy)-phenoxy]-azetidine] | 18 | 13 | 20 | 
 |  |  | Brc1ccc(OCc2ccccc2)c(OC2CNC2)c1 [Example 1, 3-(2-Benzyloxy-5-bromo-phenoxy)-azetidine] | 9 | 48 | 12.6 | 
 |  |  | CCN1CC(Oc2cc(Br)ccc2OCc2cccc(F)c2)C1 [Example 18, 3-[5-Bromo-2-(3-fluoro-benzyloxy)-phenoxy]-1-ethyl-azetidine] | 5 | 435 | 1.58 | 
 |  |  | Clc1ccc2c(c1)CCC2Oc1ccc(Br)cc1OC1CNC1 (racemic) [Example 152, (±)-3-[5-Bromo-2-(5-chloro-indan-1-yloxy)-phenoxy]-azetidine] | 19 | 25 | 39.8 | 
 |  |  | FC(F)(F)c1ccc2c(c1)C(Oc1ccc(Br)cc1OC1CNC1)CC2 (racemic) [Example 157, (±)-3-[5-Bromo-2-(6-trifluoromethyl-indan-1-yloxy)-phenoxy]-azetidine] | 10 | 181 | 5.01 | 
 |  |  | N#Cc1cccc(COc2ccc(Br)cc2OC2CNC2)c1 [Example 9, 3-[2-(Azetidin-3-yloxy)-4-bromo-phenoxymethyl]-benzonitrile] | 11 | 2 | 20 | 
 |  |  | N#Cc1cccc(COc2ccc(Cl)cc2OC2CNC2)c1 [Example 34, 3-[2-(Azetidin-3-yloxy)-4-chloro-phenoxymethyl]-benzonitrile] | 29 | 1 | 39.8 | 
 |  |  | CC(C)N1CC(Oc2cc(F)ccc2OCc2ccc(C(F)(F)F)o2)C1 [Example 209, 3-[5-Fluoro-2-(5-trifluoromethyl-furan-2-ylmethoxy)-phenoxy]-1-isopropyl-azetidine] | 13 | 20 | 20 | 
